Measured values reported in article PMC10993450, “New benzimidazole derivative compounds with in vitro fasciolicidal properties” (Parasites & Vectors, 2024).
“And” between values parts separate entries of the source, which are not always exact repeats. Equal entries are not always repeated. “Also recorded” adds a separate entry of the source.

test system: Fasciola hepatica eggs (ABZ-susceptible isolate); experiment: Egg hatch test (EHT), ABZ-susceptible isolates; type: cell-based; conditions: 10 µM; ABZ-susceptible isolate; mean ± SEM
Experimental: Eggs were recovered from gallbladders of cattle naturally infected with F. hepatica at the municipal slaughterhouse of León (Spain). For this, the bile of the gallbladders was filtered through sieves of different diameter size pores (500, 150, and 20 µm) using pressurized tap water. Eggs retained on the 20 µm pore size sieve were collected and stored at 4 °C in darkness until required within a maximum period of 2 months.
The susceptibility of the isolates to ABZ was confirmed by the egg hatch test (EHT) using an ABZ discriminant dose (DD) of 0.5 µM [23]. The technique is described in more detail below.
The in vitro anthelmintic activity of a total of 70 BZDs was initially tested on F. hepatica eggs recovered from gallbladders of cattle naturally infected with ABZ-susceptible isolates. The first screening was performed using a fixed concentration of 50 µM. […] Therefore, only BZDs with ovicidal activities over 80% progressed to the next assays at 10 µM. […] At this last concentration, the ovicidal effect of ABZ, ABZSO, and OXF was also evaluated.
(§1) The in vitro EHT described in the current study was based on previous studies. Briefly, 100–120 eggs were incubated in 990 µL of water and 10 μL of each working solution at 25 °C in the dark for a period of 12 h. After incubation, eggs were gently washed with tap water three times to facilitate compound removal and kept in darkness at 25 °C for 14 days. After this period, eggs were exposed to light for 2 h to stimulate the hatching of eggs. Then, hatched and unhatched eggs were evaluated and counted using an optical microscope. The term “hatched eggs” includes both hatched and embryonated eggs. Negative control eggs were incubated with 10 μL of DMSO in 990 μL of water, reaching a maximum DMSO concentration of 1% (v/v), while ABZ at 0.5 µM was used as positive control. Each compound at a specific concentration was tested in triplicate in the same EHT and repeated at least two different days.
With the aim to characterize the susceptibility of isolates from naturally infected cattle, the drug used in the EHT was ABZ, tested at a discriminant dose of 0.5 μM. Drug susceptibility is assumed when the ovicidal activity is over 70%, resistance when is lower than 40%, and a suspicion of resistance when activity is between these values at 0.5 μM.
(§2) The efficacy of each compound and drug was calculated as its ovicidal activity following the formula below: Ovicidal activity%=100×%eggs hatched in negative control-%egg hatched after drug incubation/%egg hatched in control.

Row | Structure (SMILES) | % Ovicidal activity
1 | Cc1ccc2[nH]c(-c3ccc(Cl)cc3)nc2c1 [BZD05] | around 50%
2 | COc1ccc(-c2nc3cc(OC)ccc3[nH]2)cc1 [BZD20] | 24.59 ± 05.71%

same assay, conditions: 50 µM; ABZ-susceptible isolate; mean ± SEM

Row | Structure (SMILES) | % Ovicidal activity
3 | COc1ccc(-c2nc3ccccc3[nH]2)cc1 [BZD01] | 20.07 ± 9.32%
4 | Clc1ccc(-c2nc3ccccc3[nH]2)cc1 [BZD02] | 09.55 ± 5.68%
5 | Brc1ccc(-c2nc3ccccc3[nH]2)cc1 [BZD03] | 01.93 ± 1.11%
6 | Cc1ccc2[nH]c(-c3ccc(Cl)cc3)nc2c1 [BZD05] | 35.59 ± 9.00%
7 | Cc1ccc(C)c(-c2nc3cc(C)ccc3[nH]2)c1 [BZD06] | 02.26 ± 1.30% and 04.63 ± 2.27%
8 | COc1ccc(-c2nc3cc(C)ccc3[nH]2)cc1[N+](=O)[O-] [BZD07] | 07.13 ± 3.45%
9 | O=[N+]([O-])c1ccc(-c2nc3cc(Cl)ccc3[nH]2)cc1 [BZD10] | 23.55 ± 8.06%
10 | Cc1ccc(C)c(-c2nc3cc(Cl)ccc3[nH]2)c1 [BZD11] | 03.28 ± 1.45%
11 | COc1ccc(-c2nc3cc(Cl)ccc3[nH]2)cc1[N+](=O)[O-] [BZD12] | 00.55 ± 9.45%
12 | COc1ccc(-c2nc3cc(Cl)ccc3[nH]2)cc1N [BZD13] | 04.40 ± 1.38%
13 | COc1ccc(-c2nc3cc([N+](=O)[O-])ccc3[nH]2)cc1 [BZD14] | 15.55 ± 7.35%
14 | Cc1ccc(C)c(-c2nc3cc([N+](=O)[O-])ccc3[nH]2)c1 [BZD16] | 00.33 ± 0.33%
15 | COc1ccc(-c2nc3cc([N+](=O)[O-])ccc3[nH]2)cc1[N+](=O)[O-] [BZD17] | 00.00 ± 0.00%
16 | COc1ccc(-c2nc3cc(N)ccc3[nH]2)cc1 [BZD18] | 02.82 ± 1.42%
17 | COc1ccc(-c2nc3cc(NC(=O)c4ccccn4)ccc3[nH]2)cc1 [BZD19] | 13.61 ± 3.64%
18 | COc1ccc2[nH]c(-c3ccc(Cl)cc3)nc2c1 [BZD21] | 06.88 ± 6.88%
19 | COc1ccc2nc(-c3ccc(Br)cc3)[nH]c2c1 [BZD22] | 67.47 ± 5.64%
20 | COc1ccc(-c2nc3cc(C)c(C)cc3[nH]2)cc1 [BZD23] | 59.08 ± 3.79%
21 | COc1ccc(-c2nc3cc(Cl)c(Cl)cc3[nH]2)cc1 [BZD24] | 16.09 ± 6.50%
22 | Cc1ccc(S(=O)(=O)Nc2nc3cc(C)ccc3[nH]2)cc1 [BZD25] | 3.94 ± 1.37%
23 | Cc1ccc2[nH]c(NS(=O)(=O)c3ccc4ccccc4c3)nc2c1 [BZD26] | 2.23 ± 0.99%
24 | COc1ccc(CNc2nc3cc(C)ccc3[nH]2)c(OC)c1OC [BZD28] | 01.02 ± 0.62%
25 | Cc1ccc2[nH]c(NCc3ccc4ccccc4c3)nc2c1 [BZD29] | 04.65 ± 1.98%

Row | Structure (SMILES) | % Ovicidal activity
26 | COc1ccc(CNc2nc3cc(Cl)ccc3[nH]2)cc1 [BZD33] | 05.52 ± 2.49%
27 | COc1cc(CNc2nc3cc(Cl)ccc3[nH]2)cc(OC)c1OC [BZD34] | 00.39 ± 0.38%
28 | Clc1ccc2[nH]c(NCc3ccco3)nc2c1 [BZD35] | 37.65 ± 13.55%
29 | COc1ccc2[nH]c(NCc3ccccc3)nc2c1 [BZD36] | 70.94 ± 2.32%
30 | COc1ccc(CNc2nc3cc(OC)ccc3[nH]2)cc1 [BZD37] | 08.66 ± 1.86%
31 | COc1ccc2[nH]c(NCc3cccs3)nc2c1 [BZD40] | 17.73 ± 5.12%
32 | COc1ccc(CNc2nc3cc(C)c(C)cc3[nH]2)cc1 [BZD41] | 05.76 ± 3.12%
33 | COc1cc(CNc2nc3cc(C)c(C)cc3[nH]2)cc(OC)c1OC [BZD42] | 10.73 ± 3.26%
34 | Clc1cc2nc(NCc3ccccc3)[nH]c2cc1Cl [BZD43] | 55.36 ± 3.12%
35 | COc1cc(CNc2nc3cc(Cl)c(Cl)cc3[nH]2)cc(OC)c1OC [BZD45] | 00.91 ± 0.61%
36 | COc1ccc(C(=O)Nc2nc3cc(C)ccc3[nH]2)cc1 [BZD48] | 09.72 ± 2.50%
37 | Cc1ccc2[nH]c(NC(=O)c3cc([N+](=O)[O-])ccc3Cl)nc2c1 [BZD50] | 07.62 ± 2.71%
38 | COc1cc(OC)cc(C(=O)Nc2nc3cc(C)ccc3[nH]2)c1 [BZD51] | 05.05 ± 2.51%
39 | COc1cc(C(=O)Nc2nc3cc(C)ccc3[nH]2)cc(OC)c1OC [BZD52] | 02.50 ± 1.26%
40 | Cc1ccc2[nH]c(NC(=O)Cc3ccc4ccccc4c3)nc2c1 [BZD53] | 01.07 ± 0.62%
41 | Cc1ccc2[nH]c(NC(=O)Cc3cccs3)nc2c1 [BZD54] | 07.20 ± 3.47%
42 | COc1ccc(C(=O)Nc2nc3cc(Cl)ccc3[nH]2)cc1 [BZD57] | 60.39 ± 10.70%
43 | COc1ccc(C(=O)Nc2nc3cc(OC)ccc3[nH]2)cc1 [BZD60] | 01.08 ± 0.79%
44 | Cc1cc2nc(NC(=O)c3cccc(Cl)c3)[nH]c2cc1C [BZD65] | 01.61 ± 0.82%
45 | COc1ccc(C(=O)Nc2nc3cc(C)c(C)cc3[nH]2)cc1 [BZD66] | 00.26 ± 0.25%
46 | O=C(Nc1nc2cc(Cl)c(Cl)cc2[nH]1)c1ccccc1 [BZD67] | 03.33 ± 2.51%
47 | COc1ccc(C(=O)Nc2nc3cc(Cl)c(Cl)cc3[nH]2)cc1 [BZD70] | 02.75 ± 1.16%

same assay, conditions: Fasciola hepatica, 5 µM; mean ± SEM; read-out: % Ovicidal activity susceptible isolate

Row | Structure (SMILES) | killing at 5 µM [%]
48 | CCC[S+]([O-])c1ccc2[nH]c(NC(=O)OC)nc2c1 (centres unmarked) [ABZSO, albendazole sulfoxide, reference compound] | > 98
49 | COC(=O)Nc1nc2ccc([S+]([O-])c3ccccc3)cc2[nH]1 (centres unmarked) [OXF, oxfendazole, reference compound] | > 98

test system: Fasciola hepatica eggs (ABZ-resistant isolate); experiment: Egg hatch test (EHT), ABZ-resistant isolate; type: cell-based; conditions: 5 µM; mean ± SEM
Description: F. hepatica eggs were recovered after washing the gallbladder of three naturally infected sheep belonging to a flock suspected to be resistant to ABZ. From these eggs, metacercariae were produced at the Centro de Investigaciones de Mabegondo (AGACAL, Xunta de Galicia, Spain) following a previous protocol. These metacercariae were used to infect eight sheep with a dose of 200 metacercariae. The infection was confirmed individually 3 months after the infection by coprological analysis using a sedimentation technique. At that point, sheep were randomly located in two groups of four animals: one treated with a therapeutic dose of ABZ (7.5 mg/kg) and the other one only with water, as control group. To assess the efficacy of ABZ in this isolate, all sheep were humanely euthanized by an intravenous administration of a lethal dose of sodium pentobarbital (Dolethal®, Vetoquinol, Spain) 2 weeks later for fluke recovery and counting. Afterwards, the in vivo efficacy of ABZ was calculated as the percentage of adult worm reduction compared with the untreated control. Additionally, the number of eggs per gram of feces (EPG) was estimated on the treatment day (mentioned as day 0) and 14 days later to determine drug efficacy by means of the fecal egg count reduction test (FECRT).
During the necropsy, gallbladders from sheep belonging to the untreated group were taken to collect the eggs and carry out the in vitro EHT, while flukes collected from livers were used to conduct the adult viability test (AVT).
Those BZDs with an activity higher than 80% at a concentration of 10 µM were also screened on eggs and adults from the ABZ resistant isolate.
as §1, §2

Row | Structure (SMILES) | % Ovicidal activity resistant isolate
50 | CCC[S+]([O-])c1ccc2[nH]c(NC(=O)OC)nc2c1 (centres unmarked) [ABZSO, albendazole sulfoxide, reference compound] | 26% and 26.12 ± 11.87%
51 | COC(=O)Nc1nc2ccc([S+]([O-])c3ccccc3)cc2[nH]1 (centres unmarked) [OXF, oxfendazole, reference compound] | 3% and 03.41 ± 02.08%

same assay, conditions: 10 µM as printed

Row | Structure (SMILES) | Ovicidal activity on the resistant isolate [%]
52 | CCC[S+]([O-])c1ccc2[nH]c(NC(=O)OC)nc2c1 (centres unmarked) [ABZSO, albendazole sulfoxide, reference compound] | 26
53 | COC(=O)Nc1nc2ccc([S+]([O-])c3ccccc3)cc2[nH]1 (centres unmarked) [OXF, oxfendazole, reference compound] | 3.5

test system: Fasciola hepatica adults (ABZ-resistant isolate); experiment: Adult viability test (AVT), motility inhibition; type: cell-based; conditions: 10 µM; ABZ-resistant isolate
Experimental: The adult viability test was based on a previous study carried out by Kirchhofer et al. with minor modifications. In brief, adult F. hepatica flukes were recovered from bile ducts of infected sheep with the resistant isolate. Flukes were quickly washed with 0.9% (w/v) NaCl and placed in six-well plates (Costar, Spain) with RPMI 1640 culture medium (Sigma-Aldrich®, Spain) supplemented with antibiotics (50 μg/mL streptomycin and 50 IU/mL penicillin; Sigma-Aldrich®, Spain) and 80 μg/mL of a hemin solution at 37 °C.
To monitor the anthelmintic effect of BZDs and the commercial drug ABZ, two flukes per well were incubated up to 72 h at a final concentration of 10 µM. DMSO at 0.5% was used as negative control. The individual movement of each fluke was examined using an inverted microscope at 24, 48, and 72 h. The activity of the compounds was estimated as motility inhibition, using a scale of fluke viability ranging from 3 (normal movements) to 0 (death, no movement observed for 2 min). All tests were repeated at least twice at different days.
Additionally, the percentage of motility inhibition for each compound was calculated from […] to 48 and 72 h after treatment using the following formula: 100 × (mean of the motility score of BZD at 24 h − mean of the motility score of BZD at 48 or 72 h)/(mean of the motility score of BZD at 24 h).
For the AVT, statistical analysis was performed using GraphPad Prism version 8.0.2. The normality of the motility inhibition scores was assessed using the Shapiro–Wilk test. Then, differences among scores at the three time points (24, 48, and 72 h) were evaluated using the Friedman test. In cases where significant differences were observed, post hoc analysis was conducted using the Nemenyi test for multiple comparisons. Comparisons with a P value < 0.05 were considered statistically significant.

Row | Structure (SMILES) | Motility inhibition of adults after 72 h of incubation (in words; significance vs 24 h)
54 | CCC[S+]([O-])c1ccc2[nH]c(NC(=O)OC)nc2c1 (centres unmarked) [ABZSO, albendazole sulfoxide, reference compound] | nor those with ABZSO or BZD46, exhibited any significant motility inhibition; also recorded: no evidence of inhibition; also recorded: did not produce any motility alteration

same assay, conditions: Fasciola hepatica, read-out: % Adult motility inhibition 48 h

Row | Structure (SMILES) | inhibition at 10 µM [%]
55 | CCC[S+]([O-])c1ccc2[nH]c(NC(=O)OC)nc2c1 (centres unmarked) [ABZSO, albendazole sulfoxide, reference compound] | 25

same assay, conditions: Fasciola hepatica, read-out: % Adult motility inhibition 72 h

Row | Structure (SMILES) | inhibition at 10 µM [%]
56 | CCC[S+]([O-])c1ccc2[nH]c(NC(=O)OC)nc2c1 (centres unmarked) [ABZSO, albendazole sulfoxide, reference compound] | 25
